Where a name gives a salt, the structure may show the parent alone. Read-outs that look alike come from different tables or passages of the source.
How the values were obtained:
human 5-HT2C receptor = target: T1, human 5-HT2C receptor (Homo sapiens, UniProt P28335); test: 5-HT2C receptor-stimulated calcium mobilization (FLIPR) in CHO cells; type: cell-based; conditions: for Emax: CHO, read-out: 5-HT2C Function Emax (%); for EC50: calcium mobilization, CHO cells expressing human 5-HT2C, read-out: 5-HT2C Function EC50
T1 sequence (P28335 33-458): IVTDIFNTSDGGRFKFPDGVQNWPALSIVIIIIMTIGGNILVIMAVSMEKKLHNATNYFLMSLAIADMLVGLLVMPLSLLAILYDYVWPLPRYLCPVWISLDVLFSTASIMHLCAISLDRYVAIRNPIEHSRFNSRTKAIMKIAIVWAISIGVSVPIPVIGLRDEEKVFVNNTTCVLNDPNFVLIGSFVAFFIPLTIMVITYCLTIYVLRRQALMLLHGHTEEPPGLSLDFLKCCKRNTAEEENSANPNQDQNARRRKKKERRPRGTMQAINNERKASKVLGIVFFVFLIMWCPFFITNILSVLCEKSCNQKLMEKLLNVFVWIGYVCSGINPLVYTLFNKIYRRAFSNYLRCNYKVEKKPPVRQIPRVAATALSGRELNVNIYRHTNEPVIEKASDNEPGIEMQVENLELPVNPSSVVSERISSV

[1] = target: T2, human 5-hydroxytryptamine-2C (h5-HT2C) receptor (Homo sapiens, UniProt P28335); test: [125I]DOI binding affinity at h5-HT2C receptor, CHO cell membranes; conditions: for Ki: [125I]DOI displacement, CHO membranes expressing h5-HT2C
T2 construct: expressed in transfected cells; host or cells: CHO (Chinese Hamster Ovary) cells; membranes
T2 sequence (P28335 33-458): T1 sequence (P28335 33-458)

[2] = percentage of the response to a maximally effective concentration of 5-HT

For `NCC1Cc2ccc3c(c2O1)CCC3` (racemic) (as salt: hydrochloride) [Example 1, (±)-1-(3,6,7,8-tetrahydro-2H-indeno[4,5-b]furan-2-yl)methanamine], the melting point was > 230 °C (dec.).
`NCC1Cc2ccc3c(c2O1)CCC3` (racemic) [Example 1, (±)-1-(3,6,7,8-tetrahydro-2H-indeno[4,5-b]furan-2-yl)methanamine] showed an Emax (human 5-HT2C receptor; [2]) of 90%, an EC50 (human 5-HT2C receptor) of 31 nM and a Ki ([1]; read-out: 5-HT2C Affinity Ki) of 10 nM.
Work on `NCC1Cc2ccc3c(c2O1)CCCC3` (racemic) [Example 4, (±)-1-(2,3,6,7,8,9-hexahydronaphtho[1,2-b]furan-2-yl)methanamine] yielded an Emax (human 5-HT2C receptor; [2]) of 80%, an EC50 (human 5-HT2C receptor) of 76 nM and a Ki ([1]; read-out: 5-HT2C Affinity Ki) of 8 nM.
Compound `Cc1cc2c(c3c1CCC3)OC(CN)C2` (racemic) [Example 7, (±)-1-(5-methyl-3,6,7,8-tetrahydro-2H-indeno[4,5-b]furan-2-yl)methanamine] has an Emax (human 5-HT2C receptor; [2]) of 95%, an EC50 (human 5-HT2C receptor) of 19 nM and a Ki ([1]; read-out: 5-HT2C Affinity Ki) of 6 nM.
Compound `NCC1Cc2ccc3ccccc3c2O1` (racemic) [Example 10, (±)-1-(2,3-dihydronaphtho[1,2-b]furan-2-yl)methanamine] has an Emax (human 5-HT2C receptor; [2]) of 90%, an EC50 (human 5-HT2C receptor) of 20 nM and a Ki ([1]; read-out: 5-HT2C Affinity Ki) of 29 nM.
With `NCC1Cc2cc3c(cc2O1)CCCC3` (racemic) [Example 13, (±)-1-(2,3,5,6,7,8-hexahydronaphtho[2,3-b]furan-2-yl)methanamine] the Ki ([1]; read-out: 5-HT2C Affinity Ki) was 99 nM.
For `NCC1Cc2c(ccc3c2CCCC3)O1` (racemic) [Example 14, (±)-1-(1,2,6,7,8,9-hexahydronaphtho[2,1-b]furan-2-yl)methanamine], the Emax (human 5-HT2C receptor; [2]) was 100%, the EC50 (human 5-HT2C receptor) was 34 nM and the Ki ([1]; read-out: 5-HT2C Affinity Ki) was 19 nM.
With `COc1cc2c(c3c1C1CCC3CC1)OC(CN)C2` (racemic) [Example 19, (±)-1-(5-methoxy-2,3,6,7,8,9-hexahydro-6,9-ethanonaphtho[1,2-b]furan-2-yl)methanamine] the Emax (human 5-HT2C receptor; [2]) was 100%, the EC50 (human 5-HT2C receptor) was 25 nM and the Ki ([1]; read-out: 5-HT2C Affinity Ki) was 7 nM.
Compound `NCC1Cc2cc(Cl)c3ccccc3c2O1` (racemic) [Example 23, (±)-1-(5-chloro-2,3-dihydronaphtho[1,2-b]furan-2-yl)methanamine] has an Emax (human 5-HT2C receptor; [2]) of 90%, an EC50 (human 5-HT2C receptor) of 28 nM and a Ki ([1]; read-out: 5-HT2C Affinity Ki) of 5 nM.
Work on `CNCC1Cc2cc(Cl)c3ccccc3c2O1` (racemic) [Example 24, (±)-1-(5-chloro-2,3-dihydronaphtho[1,2-b]furan-2-yl)-N-methylmethanamine] yielded an Emax (human 5-HT2C receptor; [2]) of 60%, an EC50 (human 5-HT2C receptor) of 91 nM and a Ki ([1]; read-out: 5-HT2C Affinity Ki) of 7 nM.
Compound `NCC1Cc2c(Cl)cc3c(c2O1)CCC3` (racemic) [Example 25, (±)-1-(4-chloro-3,6,7,8-tetrahydro-2H-indeno[4,5-b]furan-2-yl)methanamine] has an Emax (human 5-HT2C receptor; [2]) of 80%, an EC50 (human 5-HT2C receptor) of 4.4 nM and a Ki ([1]; read-out: 5-HT2C Affinity Ki) of 12 nM.
Compound `NCC1Cc2cc(Cl)c3c(c2O1)CCC3` (racemic) [Example 29, (±)-1-(5-chloro-3,6,7,8-tetrahydro-2H-indeno[4,5-b]furan-2-yl)methanamine] has an Emax (human 5-HT2C receptor; [2]) of 100%, an EC50 (human 5-HT2C receptor) of 5.8 nM and a Ki ([1]; read-out: 5-HT2C Affinity Ki) of 4 nM.
`COc1cc2c(c3c1C1CCC3C1)OC(CN)C2` (single isomer, unassigned) [Example 16, (9-methoxy-4-oxatetracyclo[9.2.1.0^2,10.0^3,7]tetradeca-2,7,9-trien-5-yl)methylamine] gave a Ki ([1]; read-out: 5-HT2C Affinity Ki) of 85 nM.
In the case of `COc1cc2c(c3c1C1CCC3C1)OC(CN)C2` (single isomer, unassigned) [Example 17, (9-methoxy-4-oxatetracyclo[9.2.1.0^2,10.0^3,7]tetradeca-2,7,9-trien-5-yl)methylamine], the Emax (human 5-HT2C receptor; [2]) is reported as 100%, the EC50 (human 5-HT2C receptor) is reported as 10 nM and the Ki ([1]; read-out: 5-HT2C Affinity Ki) is reported as 8 nM.
With `COc1cc2c(c3c1C1CCC3C1)OC(CN)C2` (single isomer, unassigned) [Example 18, (9-methoxy-4-oxatetracyclo[9.2.1.0^2,10.0^3,7]tetradeca-2,7,9-trien-5-yl)methylamine] the Ki ([1]; read-out: 5-HT2C Affinity Ki) was 82 nM.
`C[C@@H](N)[C@H]1Cc2ccc3c(c2O1)CCC3` (single isomer, unassigned) [Example 22, (2R*)-1-[(2R*)-3,6,7,8-tetrahydro-2H-indeno[4,5-b]furan-2-yl]ethylamine] showed an Emax (human 5-HT2C receptor) of 80%, an EC50 (human 5-HT2C receptor) of 15 nM and a Ki ([1]; 5-HT2C Affinity Ki (nM)) of 13 nM.
For `NCC1Cc2ccc3c(c2O1)CCC3` (single isomer, unassigned; (+)) [Example 2, (+)-1-(3,6,7,8-tetrahydro-2H-indeno[4,5-b]furan-2-yl)methanamine], the EC50 (human 5-HT2C receptor) was 8 nM, the “5-HT2C Function Emax (%)” value (human 5-HT2C receptor; [2]) was 75% and the Ki ([1]; read-out: 5-HT2C Affinity Ki) was 28 nM.
For `NCC1Cc2ccc3c(c2O1)CCCC3` (single isomer, unassigned; (+)) [Example 5, (+)-1-(2,3,6,7,8,9-hexahydronaphtho[1,2-b]furan-2-yl)methanamine], the EC50 (human 5-HT2C receptor) was 38 nM, the “5-HT2C Function Emax (%)” value (human 5-HT2C receptor; [2]) was 70% and the Ki ([1]; read-out: 5-HT2C Affinity Ki) was 17 nM.
Work on `Cc1cc2c(c3c1CCC3)OC(CN)C2` (single isomer, unassigned; (+)) [Example 8, (+)-1-(5-methyl-3,6,7,8-tetrahydro-2H-indeno[4,5-b]furan-2-yl)methanamine] yielded an Emax (human 5-HT2C receptor; [2]) of 100%, an EC50 (human 5-HT2C receptor) of 8.3 nM and a Ki ([1]; read-out: 5-HT2C Affinity Ki) of 6 nM.
For `NCC1Cc2ccc3ccccc3c2O1` (single isomer, unassigned; (+)) [Example 11, (+)-1-(2,3-dihydronaphtho[1,2-b]furan-2-yl)methanamine], the EC50 (human 5-HT2C receptor) was 5.7 nM, the “5-HT2C Function Emax (%)” value (human 5-HT2C receptor; [2]) was 65% and the Ki ([1]; read-out: 5-HT2C Affinity Ki) was 15 nM.
With `COc1cc2c(c3c1C1CCC3CC1)OC(CN)C2` (single isomer, unassigned; (+)) [Example 20, (+)-1-(5-methoxy-2,3,6,7,8,9-hexahydro-6,9-ethanonaphtho[1,2-b]furan-2-yl)methanamine] the EC50 (human 5-HT2C receptor) was 91 nM, the “5-HT2C Function Emax (%)” value (human 5-HT2C receptor; [2]) was 60% and the Ki ([1]; read-out: 5-HT2C Affinity Ki) was 22 nM.
In the case of `NCC1Cc2c(Cl)cc3c(c2O1)CCC3` (single isomer, unassigned; (+)) [Example 27, (+)-1-(4-chloro-3,6,7,8-tetrahydro-2H-indeno[4,5-b]furan-2-yl)methanamine], the EC50 (human 5-HT2C receptor) is reported as 56 nM, the “5-HT2C Function Emax (%)” value (human 5-HT2C receptor; [2]) is reported as 60% and the Ki ([1]; read-out: 5-HT2C Affinity Ki) is reported as 4 nM.
For `NCC1Cc2cc(Cl)c3c(c2O1)CCC3` (single isomer, unassigned; (+)) [Example 31, (+)-1-(5-chloro-3,6,7,8-tetrahydro-2H-indeno[4,5-b]furan-2-yl)methanamine], the EC50 (human 5-HT2C receptor) was 10 nM, the “5-HT2C Function Emax (%)” value (human 5-HT2C receptor; [2]) was 40% and the Ki ([1]; read-out: 5-HT2C Affinity Ki) was 1 nM.
For `NCC1Cc2ccc3c(c2O1)CCC3` (single isomer, unassigned; (-)) [Example 3, (−)-1-(3,6,7,8-tetrahydro-2H-indeno[4,5-b]furan-2-yl)methanamine], the EC50 (human 5-HT2C receptor) was 0.9 nM, the “5-HT2C Function Emax (%)” value (human 5-HT2C receptor; [2]) was 100% and the Ki ([1]; read-out: 5-HT2C Affinity Ki) was 5 nM.
With `NCC1Cc2ccc3c(c2O1)CCCC3` (single isomer, unassigned; (-)) [Example 6, (−)-1-(2,3,6,7,8,9-hexahydronaphtho[1,2-b]furan-2-yl)methanamine] the EC50 (human 5-HT2C receptor) was 3 nM, the “5-HT2C Function Emax (%)” value (human 5-HT2C receptor; [2]) was 100% and the Ki ([1]; read-out: 5-HT2C Affinity Ki) was 11 nM.
With `Cc1cc2c(c3c1CCC3)OC(CN)C2` (single isomer, unassigned; (-)) [Example 9, (−)-1-(5-methyl-3,6,7,8-tetrahydro-2H-indeno[4,5-b]furan-2-yl)methanamine] the EC50 (human 5-HT2C receptor) was 11 nM, the “5-HT2C Function Emax (%)” value (human 5-HT2C receptor; [2]) was 100% and the Ki ([1]; read-out: 5-HT2C Affinity Ki) was 11 nM.
For `NCC1Cc2ccc3ccccc3c2O1` (single isomer, unassigned; (-)) [Example 12, (−)-1-(2,3-dihydronaphtho[1,2-b]furan-2-yl)methanamine], the EC50 (human 5-HT2C receptor) was 2 nM, the “5-HT2C Function Emax (%)” value (human 5-HT2C receptor; [2]) was 90% and the Ki ([1]; read-out: 5-HT2C Affinity Ki) was 16 nM.
For `COc1cc2c(c3c1C1CCC3CC1)OC(CN)C2` (single isomer, unassigned; (-)) [Example 21, (−)-1-(5-methoxy-2,3,6,7,8,9-hexahydro-6,9-ethanonaphtho[1,2-b]furan-2-yl)methanamine], the EC50 (human 5-HT2C receptor) was 0.8 nM, the “5-HT2C Function Emax (%)” value (human 5-HT2C receptor; [2]) was 90% and the Ki ([1]; read-out: 5-HT2C Affinity Ki) was 4 nM.
For `NCC1Cc2c(Cl)cc3c(c2O1)CCC3` (single isomer, unassigned; (-)) [Example 26, (−)-1-(4-chloro-3,6,7,8-tetrahydro-2H-indeno[4,5-b]furan-2-yl)methanamine], the Emax (human 5-HT2C receptor; [2]) was 80%, the EC50 (human 5-HT2C receptor) was 88 nM and the Ki ([1]; read-out: 5-HT2C Affinity Ki) was 16 nM.
With `NCC1Cc2cc(Cl)c3c(c2O1)CCC3` (single isomer, unassigned; (-)) [Example 30, (−)-1-(5-chloro-3,6,7,8-tetrahydro-2H-indeno[4,5-b]furan-2-yl)methanamine] the EC50 (human 5-HT2C receptor) was 234 nM, the “5-HT2C Function Emax (%)” value (human 5-HT2C receptor; [2]) was 80% and the Ki ([1]; read-out: 5-HT2C Affinity Ki) was 6 nM.
For `COc1cc2c(c3c1C1CCC3C1)OC(CN)C2` (stereo not drawn) [Example 15, (9-methoxy-4-oxatetracyclo[9.2.1.0^2,10.0^3,7]tetradeca-2,7,9-trien-5-yl)methylamine], the Emax (human 5-HT2C receptor; [2]) was 100%, the EC50 (human 5-HT2C receptor) was 17 nM and the Ki ([1]; read-out: 5-HT2C Affinity Ki) was 9 nM.
`CSc1ccc2c(c1)C(N1CCN(C)CC1)Cc1ccccc1S2` (stereo not drawn) [Methiothepin, reference compound] showed a Ki ([1]; reference compounds, read-out: Ki (95% confidence interval)) of 4.6 nM.
Work on `COc1cc(CC(C)N)c(OC)cc1I` (stereo not drawn) [[^125I] DOI, reference compound] yielded a Kd ([1]; saturation binding with increasing concentrations of [125I]DOI, read-out: dissociation constant, KD) of 0.4 nM.
